Each block holds one molecule with its values, some of them ahead of it.
Molecular target: T1, thrombin receptor (Homo sapiens, UniProt P25116)
T1 construct: tissue North Jersey Blood Center (East Orange, N.J.); host or cells: platelet membranes prepared from platelet concentrates
T1 sequence (P25116 22-425): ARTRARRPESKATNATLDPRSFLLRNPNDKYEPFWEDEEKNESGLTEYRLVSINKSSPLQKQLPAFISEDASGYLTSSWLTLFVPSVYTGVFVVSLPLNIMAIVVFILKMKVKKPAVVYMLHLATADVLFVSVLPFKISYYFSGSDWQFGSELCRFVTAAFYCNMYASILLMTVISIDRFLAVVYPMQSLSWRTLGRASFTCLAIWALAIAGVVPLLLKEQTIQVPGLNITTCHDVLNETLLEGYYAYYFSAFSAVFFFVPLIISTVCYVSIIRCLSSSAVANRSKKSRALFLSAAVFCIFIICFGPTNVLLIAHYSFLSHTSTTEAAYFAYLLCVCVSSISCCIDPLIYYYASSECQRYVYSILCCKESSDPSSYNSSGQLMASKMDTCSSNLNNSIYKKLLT
Assay: High throughput thrombin receptor radioligand binding assay ([3H]haTRAP, platelet membranes)
Experimental: In Vitro Testing Procedure for Thrombin Receptor Antagonists:
Preparation of [^3H]ha TRAP
A(pF-F)R(ChA)(hR)(I2—Y)—NH2 (1.03 mg) and 10% Pd/C (5.07 mg) were suspended in DMF (250 μl) and diisopropylethylamine (10 μl). The vessel was attached to the tritium line, frozen in liquid nitrogen and evacuated. Tritium gas (342 mCi) was then added to the flask, which was stirred at room temperature for 2 hours. At the completion of the reaction, the excess tritium was removed and the reacted peptide solution was diluted with DMF (0.5 ml) and filtered to remove the catalyst. The collected DMF solution of the crude peptide was diluted with water and freeze dried to remove the labile tritium. The solid peptide was redissolved in water and the freeze drying process repeated. The tritiated peptide ([^3H]haTRAP) was dissolved in 0.5 ml of 0.1% aqueous TFA and purified by HPLC using the following conditions: column, Vydac™ C18, 25 cm×9.4 mm I.D.; mobile phase, (A) 0.1% TFA in water, (B) 0.1% TFA in CH3CN; gradient, (A/B) from 100/0 to 40/60 over 30 min; flow rate, 5 ml/min; detection, UV at 215 nm. The radiochemical purity of [^3H]haTRAP was 99% as analyzed by HPLC. A batch of 14.9 mCi at a specific activity of 18.4 Ci/mmol was obtained.
Preparation of Platelet Membranes
Platelet membranes were prepared using a modification of the method of Natarajan et al. (Natarajan et al, Int. J. Peptide Protein Res. 45:145-151 (1995)) from 20 units of platelet concentrates obtained from the North Jersey Blood Center (East Orange, N.J.) within 48 hours of collection. All steps were carried out at 4° C. under approved biohazard safety conditions. Platelets were centrifuged at 100×g for 20 minutes at 4° C. to remove red cells. The supernatants were decanted and centrifuged at 3000×g for 15 minutes to pellet platelets. Platelets were re-suspended in 10 mM Tris-HCl, pH 7.5, 150 mM NaCl, 5 mM EDTA, to a total volume of 200 ml and centrifuged at 4400×g for 10 minutes. This step was repeated two additional times. […] Protein concentration was determined by a Lowry assay (Lowry et al., J. Biol. Chem., 193:265-275 (1951)). […]

Thrombin Receptor Antagonist Activity: % inhibition (at 1 μM): 15%
Structure (SMILES): O=C1OC[C@@H]2C(/C=C/c3ccc(-c4cccc(F)c4)cn3)c3ccccc3CN12 (single isomer, unassigned) [Compound 13, 10-{2-[5-(3-Fluoro-phenyl)-pyridin-2-yl]-vinyl}-1,5,10,10a-tetrahydro-oxazolo[3,4-b]isoquinolin-3-one]

inhibition at 1 µM (at 1 μM, read-out: Thrombin Receptor Antagonist Activity: % inhibition): 27%
Structure (SMILES): O=C1OC[C@@H]2C(/C=C/c3ccc(-c4cccc(F)c4)cn3)c3ccccc3CN12 (single isomer, unassigned) [Compound 12, 10-{2-[5-(3-Fluoro-phenyl)-pyridin-2-yl]-vinyl}-1,5,10,10a-tetrahydro-oxazolo[3,4-b]isoquinolin-3-one]

Ki: 12 nM
Structure (SMILES): O=C1OC[C@@H]2C(/C=C/c3ccc(-c4cccc(F)c4)cn3)C3CCCCC3CN12 (stereo partly drawn) [Compound 16]

From patent publication US7888369B2, “Oxazoloisoquinoline derivatives as thrombin receptor antagonists” (Schering Corporation, priority 2005, dated 2011)
